Laboratory results reported in EP0874242A1, “Device and apparatus for the simultaneous detection of multiple analytes” (Randox Laboratories Ltd., priority 1997, dated 1998).

What was measured:
sulphonamide antibodies [1] = assay: Multi-sulphonamide competitive immunoassay, antibodies on APTES ceramic substrates with dihydrazide linker, with or without periodate activation; assay type: binding
Protocol: Multi-sulphonamide standards (200 µl) and a cocktail of sulphonamide horseradish peroxidase conjugates (100 µl) were added to the reaction wells containing the device as appropriate and incubated for 15 minutes at room temperature. The standards contained 5, 10, 50 and 100 ng/ml for each of the 12 sulphonamides.
Thereafter the multi-sulphonamide devices were washed with PBS/PEG buffer to remove excess reagents and 300 µl chemiluminescent substrate [luminol (1.4mM)/urea hydrogen peroxide (9.6mM)] per device was introduced. The devices were imaged using a CCD camera with an exposure time of up to 4 minutes. Standard curves were obtained for each of the 12 individual sulphonamides. Calibration curves for each of the 12 individual sulphonamides are represented graphically in Figure 15. The % B/Bo value plotted on the Y-axis represents the % […] of the zero standard RLU (Relative light unit) value caused by each individual sulphonamide standard (plotted on the X-axis as log10).
In a further example, ceramic substrates silanated with APTES were reacted with a dihydrazide linker. Sulphonamide antibodies were treated with sodium periodate to render them reactive towards the hydrazide linker. Control sulphonamide antibodies were simply dialysed against sodium acetate buffer pH 5.5. The RLU results are shown in Tables 4 (not treated) and 5 (treated by periodate method). […] The control antibodies (no periodate activation) gave very poor standard curves when compared to the covalently immobilised sulphonamide antibodies.

sulphonamide antibodies [2] = assay: Multi-sulphonamide competitive immunoassay in microchannels, chemiluminescent CCD detection (Example 3); assay type: binding; conditions: microchannel device, 2 minutes incubation
Protocol: In contrast to Example 1, a multi-sulphonamide assay has also been conducted using microchannels. The device is illustrated in Figure 11. In this Example, the reagent addition reservoirs 21 are 2 mm x 2 mm, and 300 µm deep (vol. 1.2 µl), the channels 23 are each 5 mm long, 200 µm wide and 100 µm deep (vol. 100 nl), and the reservoir 24 is 1.9 mm x 8.6 mm, and 300 µm deep (vol. 4.9 µl).
The chemical modification of the surface was performed as described in Example 1. Antibody was added to each of the channels and incubated for 2 hours at 37°C. The substrates were then blocked and washed as for Example 1.
A multi-sulphonamide standard (200 µl) and sulphonamide horseradish pexoxidase conjugates (100 µl) were mixed. 1 µl of the resultant reagent was pipetted into each of the reservoirs supplying the antibody-coated channel for each sulphonamide. The standards contained 10 or 100 ng/ml of all the sulphonamides as appropriate.
The reagent flowed by capillary action. After incubation for 2 minutes, the substrate was washed 5 times with PBS/PEG and chemiluminescent reagent [luminol (1.4 mM)/urea hydrogen peroxide (9.6 mM)] was added.
The devices were imaged using a CCD camera with an exposure time of up to 4 minutes.

[3] = 10 ng/ml standard, antibodies treated by periodate method, covalently immobilised (Table 5)
[4] = 10 ng/ml standard, control antibodies not treated with periodate (Table 4)
[5] = 100 ng/ml standard, antibodies treated by periodate method, covalently immobilised (Table 5)
[6] = 100 ng/ml standard, control antibodies not treated with periodate (Table 4)

| Structure (SMILES) | % B/Bo (sulphonamide antibodies [1]; [3]) [%] | % B/Bo (sulphonamide antibodies [1]; [4]) [%] | % B/Bo (sulphonamide antibodies [1]; [5]) [%] | % B/Bo (sulphonamide antibodies [1]; [6]) [%] | % B/Bo (sulphonamide antibodies [2]; 10 ng/ml standard) [%] | % B/Bo (sulphonamide antibodies [2]; 100 ng/ml standard) [%] |
| --- | --- | --- | --- | --- | --- | --- |
| Nc1ccc(S(=O)(=O)Nc2ccc(Cl)nn2)cc1 [Sulphachloropyridazine, sulphachloropyridazine] | 30 | 24 | 8 |  |  |  |
| Nc1ccc(S(=O)(=O)Nc2nccs2)cc1 [Sulphathiazole, sulphathiazole] | 32 | 28 | 16 |  |  |  |
| Cc1noc(NS(=O)(=O)c2ccc(N)cc2)c1C [Sulphisoxazole, sulphisoxazole] | 27 | 23 | 9 |  |  |  |
| Cc1nnc(NS(=O)(=O)c2ccc(N)cc2)s1 [Sulphamethizole, sulphamethizole] | 33 | 36 | 28 |  |  |  |
| COc1cc(NS(=O)(=O)c2ccc(N)cc2)nc(OC)n1 [Sulphadimethoxine, sulphadimethoxine] | 46 |  | 36 | 97 |  |  |
| COc1ccc(NS(=O)(=O)c2ccc(N)cc2)nn1 [Sulphamethoxypyridazine, sulphamethoxypyridazine] | 74 | 84 | 40 |  | 28 | 15 |
| Nc1ccc(S(=O)(=O)Nc2cnc3ccccc3n2)cc1 [Sulphaquinoxaline, sulphaquinoxaline] | 58 | 79 | 53 | 93 | 56 | 24 |
| COc1ncnc(NS(=O)(=O)c2ccc(N)cc2)c1OC [Sulphadoxine, sulphadoxine] | 31 | 51 | 20 |  |  |  |
| Cc1ccnc(NS(=O)(=O)c2ccc(N)cc2)n1 [Sulphamerazine, sulphamerazine] | 43 | 52 | 26 | 56 | 40 | 22 |
| Cc1cc(C)nc(NS(=O)(=O)c2ccc(N)cc2)n1 [Sulphamethazine, sulphamethazine] | 77 |  | 61 |  | 14 | 7 |
